Assay results: PubChem BioAssay (NCI)
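Step 1: Grow cells in 96-well plates. Step 2: Expose to compound for 48 hours at 5 concentrations. Step 3: Interpolate endpoints linearly; if unreached, use highest concentration. Abbreviation: GI50, concentration required for 50% inhibition of growth. Definition used: TGI = concentration required for complete inhibition of growth.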

How the values were obtained:
Test in all cases: NCI tumour cell line growth inhibition, 48 h
TK-10 renal = tested on: TK-10 renal
BT-549 breast = tested on: BT-549 breast
MDA-MB-435 = tested on: MDA-MB-435
T-47D breast = tested on: T-47D breast
K-562 leukemia = tested on: K-562 leukemia
SK-MEL-2 melanoma = tested on: SK-MEL-2 melanoma
U251 CNS = tested on: U251 CNS
KM12 colon = tested on: KM12 colon
786-0 renal = tested on: 786-0 renal
IGROV1 ovarian = tested on: IGROV1 ovarian
SK-MEL-5 melanoma = tested on: SK-MEL-5 melanoma
SNB-19 CNS = tested on: SNB-19 CNS
OVCAR-4 ovarian = tested on: OVCAR-4 ovarian
SR leukemia = tested on: SR leukemia
SK-OV-3 ovarian = tested on: SK-OV-3 ovarian
MOLT-4 leukemia = tested on: MOLT-4 leukemia
LOX IMVI melanoma = tested on: LOX IMVI melanoma
M14 melanoma = tested on: M14 melanoma
HCC-2998 colon = tested on: HCC-2998 colon
NCI-H522 lung = tested on: NCI-H522 lung
UACC-62 melanoma = tested on: UACC-62 melanoma
HOP-62 NSCLC = tested on: HOP-62 NSCLC
COLO 205 colon = tested on: COLO 205 colon
HS 578T breast = tested on: HS 578T breast
A549 NSCLC = tested on: A549 NSCLC
A498 renal = tested on: A498 renal
NCI-H460 lung = tested on: NCI-H460 lung
UACC-257 melanoma = tested on: UACC-257 melanoma
PC-3 prostate = tested on: PC-3 prostate
CCRF-CEM leukemia = tested on: CCRF-CEM leukemia
CAKI-1 renal = tested on: CAKI-1 renal
HCT-116 colon = tested on: HCT-116 colon
HOP-92 NSCLC = tested on: HOP-92 NSCLC
RXF 393 renal = tested on: RXF 393 renal
SNB-75 CNS = tested on: SNB-75 CNS
HCT-15 colon = tested on: HCT-15 colon
HT29 colon = tested on: HT29 colon
NCI-H226 lung = tested on: NCI-H226 lung
SK-MEL-28 melanoma = tested on: SK-MEL-28 melanoma
EKVX NSCLC = tested on: EKVX NSCLC
SF-295 CNS = tested on: SF-295 CNS
DU-145 prostate = tested on: DU-145 prostate
SF-268 CNS = tested on: SF-268 CNS
MALME-3M melanoma = tested on: MALME-3M melanoma
NCI/ADR-RES ovarian = tested on: NCI/ADR-RES ovarian
SF-539 CNS = tested on: SF-539 CNS
MCF7 breast = tested on: MCF7 breast
SN12C renal = tested on: SN12C renal
UO-31 renal = tested on: UO-31 renal
OVCAR-8 ovarian = tested on: OVCAR-8 ovarian
MDA-MB-231 breast = tested on: MDA-MB-231 breast
SW-620 colon = tested on: SW-620 colon
ACHN renal = tested on: ACHN renal
HL-60(TB) leukemia = tested on: HL-60(TB) leukemia
OVCAR-5 ovarian = tested on: OVCAR-5 ovarian
RPMI-8226 leukemia = tested on: RPMI-8226 leukemia
OVCAR-3 ovarian = tested on: OVCAR-3 ovarian

For `O=C1[C@H]2Cc3c([nH]c4ccccc34)[C@@H](c3ccc(Br)cc3)N2C(=O)CN1C1CCN(CC2CCCCC2)CC1`, the GI50 (TK-10 renal) was 17.8 µM, the TGI (TK-10 renal) was 35.1 µM and the GI50 (BT-549 breast) was 15.5 µM. For the same compound, the TGI (BT-549 breast) was 29.6 µM, the GI50 (MDA-MB-435) was 16.9 µM and the TGI (MDA-MB-435) was 31.6 µM. It also gave a GI50 (T-47D breast) of 13.9 µM, a TGI (T-47D breast) of over 100 µM and a GI50 (K-562 leukemia) of 16.5 µM. For the same compound, the TGI (K-562 leukemia) was 53.1 µM, the GI50 (SK-MEL-2 melanoma) was 23 µM and the TGI (SK-MEL-2 melanoma) was 58.7 µM. It also gave a GI50 (U251 CNS) of 16.4 µM, a TGI (U251 CNS) of 34 µM and a GI50 (KM12 colon) of 17 µM. The TGI (KM12 colon) was 34 µM, the GI50 (786-0 renal) was 15.6 µM and the TGI (786-0 renal) was 29.4 µM. The GI50 (IGROV1 ovarian) was 13.4 µM, the TGI (IGROV1 ovarian) was 26.7 µM and the GI50 (SK-MEL-5 melanoma) was 16.1 µM. It also gave a TGI (SK-MEL-5 melanoma) of 29.9 µM, a GI50 (SNB-19 CNS) of 15.9 µM and a TGI (SNB-19 CNS) of 31.5 µM. The GI50 (OVCAR-4 ovarian) was 17.9 µM, the TGI (OVCAR-4 ovarian) was 37.1 µM and the GI50 (SR leukemia) was 16 µM. For the same compound, the TGI (SR leukemia) was 46.1 µM, the GI50 (SK-OV-3 ovarian) was 21.9 µM and the TGI (SK-OV-3 ovarian) was 59.3 µM. The GI50 (MOLT-4 leukemia) was 20.4 µM, the TGI (MOLT-4 leukemia) was 81.6 µM and the GI50 (LOX IMVI melanoma) was 18.6 µM. The TGI (LOX IMVI melanoma) was 34.3 µM, the GI50 (M14 melanoma) was 16.9 µM and the TGI (M14 melanoma) was 32.9 µM. It also gave a GI50 (HCC-2998 colon) of 14.4 µM, a TGI (HCC-2998 colon) of 28 µM and a GI50 (NCI-H522 lung) of 17.9 µM. It also gave a TGI (NCI-H522 lung) of 39.9 µM, a GI50 (UACC-62 melanoma) of 16 µM and a TGI (UACC-62 melanoma) of 29.9 µM. It also gave a GI50 (HOP-62 NSCLC) of 16.2 µM, a TGI (HOP-62 NSCLC) of 34.6 µM and a GI50 (COLO 205 colon) of 14.3 µM. It also gave a TGI (COLO 205 colon) of 30.2 µM, a GI50 (HS 578T breast) of 18.4 µM and a TGI (HS 578T breast) of 45.1 µM. For the same compound, the GI50 (A549 NSCLC) was 18.3 µM, the TGI (A549 NSCLC) was 39.9 µM and the GI50 (A498 renal) was 13.7 µM. The TGI (A498 renal) was 26.9 µM, the GI50 (NCI-H460 lung) was 18.8 µM and the TGI (NCI-H460 lung) was 36.1 µM. The GI50 (UACC-257 melanoma) was 20.2 µM, the TGI (UACC-257 melanoma) was 42.7 µM and the GI50 (PC-3 prostate) was 12.4 µM. For the same compound, the TGI (PC-3 prostate) was 25.5 µM, the GI50 (CCRF-CEM leukemia) was 24.1 µM and the TGI (CCRF-CEM leukemia) was 56.5 µM. For the same compound, the GI50 (CAKI-1 renal) was 14.6 µM, the TGI (CAKI-1 renal) was 28.2 µM and the GI50 (HCT-116 colon) was 13.6 µM. For the same compound, the TGI (HCT-116 colon) was 27.2 µM, the GI50 (HOP-92 NSCLC) was 6.7 µM and the TGI (HOP-92 NSCLC) was 21.1 µM. The GI50 (RXF 393 renal) was 11.9 µM, the TGI (RXF 393 renal) was 24.2 µM and the GI50 (SNB-75 CNS) was 87.1 µM. It also gave a TGI (SNB-75 CNS) of over 100 µM, a GI50 (HCT-15 colon) of 16 µM and a TGI (HCT-15 colon) of 30.8 µM. The GI50 (HT29 colon) was 14.8 µM, the TGI (HT29 colon) was 35 µM and the GI50 (NCI-H226 lung) was 30.4 µM. For the same compound, the TGI (NCI-H226 lung) was over 100 µM, the GI50 (SK-MEL-28 melanoma) was 16.4 µM and the TGI (SK-MEL-28 melanoma) was 30.6 µM. For the same compound, the GI50 (EKVX NSCLC) was 13.8 µM, the TGI (EKVX NSCLC) was 27.4 µM and the GI50 (SF-295 CNS) was 17.5 µM. For the same compound, the TGI (SF-295 CNS) was 31.9 µM, the GI50 (DU-145 prostate) was 17.6 µM and the TGI (DU-145 prostate) was 33.6 µM. For the same compound, the GI50 (SF-268 CNS) was 15.3 µM, the TGI (SF-268 CNS) was 31.9 µM and the GI50 (MALME-3M melanoma) was 13.8 µM. For the same compound, the TGI (MALME-3M melanoma) was 28.3 µM, the GI50 (NCI/ADR-RES ovarian) was 16.7 µM and the TGI (NCI/ADR-RES ovarian) was 34.1 µM. For the same compound, the GI50 (SF-539 CNS) was 15.5 µM, the TGI (SF-539 CNS) was 29.5 µM and the GI50 (MCF7 breast) was 10.1 µM. For the same compound, the TGI (MCF7 breast) was 22.3 µM, the GI50 (SN12C renal) was 15.8 µM and the TGI (SN12C renal) was 30.9 µM. The GI50 (UO-31 renal) was 11.7 µM, the TGI (UO-31 renal) was 24.2 µM and the GI50 (OVCAR-8 ovarian) was 22.5 µM. It also gave a TGI (OVCAR-8 ovarian) of 55.5 µM, a GI50 (MDA-MB-231 breast) of 15.2 µM and a TGI (MDA-MB-231 breast) of 30.1 µM. The GI50 (SW-620 colon) was 16.5 µM, the TGI (SW-620 colon) was 31.8 µM and the GI50 (ACHN renal) was 15.3 µM. For the same compound, the TGI (ACHN renal) was 28.7 µM, the GI50 (HL-60(TB) leukemia) was 16.4 µM and the TGI (HL-60(TB) leukemia) was 41.8 µM. It also gave a GI50 (OVCAR-5 ovarian) of 15.1 µM, a TGI (OVCAR-5 ovarian) of 28.8 µM and a GI50 (RPMI-8226 leukemia) of 23.4 µM. The TGI (RPMI-8226 leukemia) was 53.4 µM, the GI50 (OVCAR-3 ovarian) was 15.3 µM and the TGI (OVCAR-3 ovarian) was 29.5 µM.
